{"source": "patent US9688765B2", "about": "“Methods using RANK/RANKL antagonist antibodies for treating pain” (Antecip Bioventures II LLC, priority 2014, dated 2017)", "key": {"RANKL expression": {"test_system": "RANKL expression", "conditions": "cultured bone marrow stromal cell line; cited from earlier work"}, "low back pain": {"test_system": "low back pain", "experiment": "Treatment of patient suffering from low back pain", "format": "in vivo, human", "conditions": "patient two, 60 mg subcutaneously, within 6 months after treatment", "method": "PROLIA® (denosumab, 60 mg) is administered subcutaneously to a patient suffering from low back pain. […] The injection is repeated every six months. IMBRUVICA® (ibrutinib, 420 mg taken orally once daily (three 140 mg capsules once daily)) is administered to a patient suffering from low back pain. […] IMBRUVICA® (ibrutinib, 560 mg taken orally once daily, (four 140 mg capsules once daily)) is administered to a patient suffering from low back pain."}, "[1]": {"test_system": "complex regional pain syndrome", "experiment": "Treatment of patient suffering from complex regional pain syndrome", "format": "in vivo, human", "conditions": "patient one, 60 mg subcutaneously, within 6 months after treatment", "method": "PROLIA® (denosumab, 60 mg) is administered subcutaneously to a patient suffering from complex regional pain syndrome. […] The injection is repeated every six months."}, "[2]": {"test_system": "pain associated with arthritis", "experiment": "Treatment of patient suffering from pain associated with arthritis", "format": "in vivo, human", "conditions": "patient two, 60 mg subcutaneously, within 6 months after treatment", "method": "PROLIA® (denosumab, 60 mg) is administered subcutaneously to a patient suffering from pain associated with arthritis. […] IMBRUVICA® (ibrutinib, 420 mg taken orally once daily (three 140 mg capsules once daily)) is administered to a patient suffering from pain associated with arthritis. […] IMBRUVICA® (ibrutinib, 560 mg taken orally once daily, (four 140 mg capsules once daily)) is administered to a patient suffering from pain associated with arthritis."}, "[3]": {"test_system": "pain associated with osteoarthritis", "experiment": "Treatment of patient suffering from pain associated with osteoarthritis", "format": "in vivo, human", "conditions": "patient one, 60 mg subcutaneously, within 6 months after treatment", "method": "PROLIA® (denosumab, 60 mg) is administered subcutaneously to a patient suffering from pain associated with osteoarthritis. […] The injection is repeated every six months. IMBRUVICA® (ibrutinib, 420 mg taken orally once daily (three 140 mg capsules once daily)) is administered to a patient suffering from pain associated with osteoarthritis. […] IMBRUVICA® (ibrutinib, 560 mg taken orally once daily, (four 140 mg capsules once daily)) is administered to a patient suffering from pain associated with osteoarthritis."}, "neuropathic pain": {"test_system": "neuropathic pain", "experiment": "Treatment of patient suffering from neuropathic pain", "format": "in vivo, human", "conditions": "patient one, 60 mg subcutaneously, within 6 months after treatment", "method": "PROLIA® (denosumab, 60 mg) is administered subcutaneously to a patient suffering from neuropathic pain. […] The injection is repeated every six months."}, "[4]": {"test_system": "arthritis pain (mechanical hyperalgesia)", "experiment": "Rat complete Freund's adjuvant (CFA) model of arthritis pain", "format": "in vivo", "conditions": "day 14 post CFA", "procedure": "The effect of RANK/RANKL antagonism on arthritis pain was examined in the rat complete Freund's adjuvant (CFA) model of arthritis pain. In this model, injection of 100% complete Freund's adjuvant (CFA) in a 75 μL volume into the left hind paws is followed by a 10-14 day period to allow for the development of arthritis pain. Animals were orally administered zoledronic acid 9 mg/kg (or 54 mg/m^2), or zoledronic acid 60 mg/kg (or 360 mg/m^2) to produce RANK/RANKL antagonism, divided in three equal daily doses on the first three days post CFA injection, or vehicle (control). Drug was dissolved in distilled water and prepared fresh daily. Animals were fasted prior to dosing.\nArthritis pain (mechanical hyperalgesia) in the vehicle and drug-treated animals was evaluated on day 14 post CFA injection using a digital Randall-Selitto device (dRS; IITC Life Sciences, Woodland Hills, Calif.). […] Paw compression threshold was measured by applying increasing pressure to the plantar surface of the hind paw with a dome-shaped tip placed between the 3rd and 4th metatarsus. […]\nReversal of arthritis pain in the ipsilateral (CFA-injected) paw was calculated according to the formula: % reversal=(ipsilateral drug threshold−ipsilateral vehicle threshold)/(contralateral vehicle threshold−ipsilateral vehicle threshold)×100. […]"}}, "data": [{"compound": "O=P(O)(O)C(O)(Cc1cnc2ccccn12)P(=O)(O)O", "note": "[Minodronic acid, minodronic acid]", "values": [{"measurement": "RANKL expression", "setting": "RANKL expression", "result": "inhibit[] RANKL expression"}]}, {"compound": "denosumab [PROLIA]", "values": [{"measurement": "pain experienced by patient", "setting": "low back pain", "result": "less pain"}, {"measurement": "pain experienced by patient", "setting": "[1]", "result": "less pain"}, {"measurement": "pain experienced by patient", "setting": "[2]", "result": "less pain"}, {"measurement": "pain experienced by patient", "setting": "[3]", "result": "less pain"}, {"measurement": "pain experienced by patient", "setting": "neuropathic pain", "result": "less pain"}]}, {"compound": "O=P(O)(O)C(O)(Cn1ccnc1)P(=O)(O)O", "note": "[zoledronic acid]", "values": [{"measurement": "reversal of arthritis pain", "setting": "[4]; oral 9 mg/kg (54 mg/m^2) total in three daily doses", "result": 33, "unit": "%"}, {"measurement": "reversal of arthritis pain", "setting": "[4]; oral 60 mg/kg (360 mg/m^2) total in three daily doses", "result": 54, "unit": "%"}]}]}
